Values quoted from earlier work as cited in patent publication US7838561B2, “Method for preventing or treating cardiac hypertrophy” (Wisconsin Alumni Research Foundation, priority 2004, dated 2010).
“Also recorded” adds a separate entry of the source. Read-outs that look alike come from different tables or passages of the source.

Columns and labels:
RARβ [1] = target: T1, RARβ (Homo sapiens, UniProt P10826)
T1 sequence (P10826 1-455): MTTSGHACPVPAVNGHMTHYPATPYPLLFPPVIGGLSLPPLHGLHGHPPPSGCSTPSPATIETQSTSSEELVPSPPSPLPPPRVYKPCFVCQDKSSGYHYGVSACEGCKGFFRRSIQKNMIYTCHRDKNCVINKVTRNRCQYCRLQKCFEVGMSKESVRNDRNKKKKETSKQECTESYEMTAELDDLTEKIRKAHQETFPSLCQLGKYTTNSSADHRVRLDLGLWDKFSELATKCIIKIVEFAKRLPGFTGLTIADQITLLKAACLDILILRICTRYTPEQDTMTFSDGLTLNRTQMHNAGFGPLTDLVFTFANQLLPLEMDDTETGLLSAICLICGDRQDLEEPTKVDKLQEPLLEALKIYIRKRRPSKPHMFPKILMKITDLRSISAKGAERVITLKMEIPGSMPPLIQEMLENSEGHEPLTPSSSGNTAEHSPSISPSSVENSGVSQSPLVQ

RARs [2] = system: RARs
RARγ [3] = target: T2, RARγ (Homo sapiens, UniProt P13631)
T2 sequence (P13631 1-454): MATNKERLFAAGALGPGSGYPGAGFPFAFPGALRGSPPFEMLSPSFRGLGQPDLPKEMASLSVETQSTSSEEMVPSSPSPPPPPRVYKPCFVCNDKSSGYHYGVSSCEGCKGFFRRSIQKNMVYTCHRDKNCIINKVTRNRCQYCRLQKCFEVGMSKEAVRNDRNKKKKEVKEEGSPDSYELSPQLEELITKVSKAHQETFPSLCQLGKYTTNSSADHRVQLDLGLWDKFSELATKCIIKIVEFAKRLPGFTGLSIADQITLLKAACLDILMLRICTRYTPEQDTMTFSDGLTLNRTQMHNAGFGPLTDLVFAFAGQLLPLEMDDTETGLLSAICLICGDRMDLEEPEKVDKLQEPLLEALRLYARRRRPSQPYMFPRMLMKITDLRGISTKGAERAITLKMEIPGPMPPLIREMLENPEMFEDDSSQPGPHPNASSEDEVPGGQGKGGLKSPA

[4] = system: human cervical cancer cell line ECE16-1
RARα [5] = target: T3, RARα (Homo sapiens, UniProt P10276)
T3 sequence (P10276 1-462): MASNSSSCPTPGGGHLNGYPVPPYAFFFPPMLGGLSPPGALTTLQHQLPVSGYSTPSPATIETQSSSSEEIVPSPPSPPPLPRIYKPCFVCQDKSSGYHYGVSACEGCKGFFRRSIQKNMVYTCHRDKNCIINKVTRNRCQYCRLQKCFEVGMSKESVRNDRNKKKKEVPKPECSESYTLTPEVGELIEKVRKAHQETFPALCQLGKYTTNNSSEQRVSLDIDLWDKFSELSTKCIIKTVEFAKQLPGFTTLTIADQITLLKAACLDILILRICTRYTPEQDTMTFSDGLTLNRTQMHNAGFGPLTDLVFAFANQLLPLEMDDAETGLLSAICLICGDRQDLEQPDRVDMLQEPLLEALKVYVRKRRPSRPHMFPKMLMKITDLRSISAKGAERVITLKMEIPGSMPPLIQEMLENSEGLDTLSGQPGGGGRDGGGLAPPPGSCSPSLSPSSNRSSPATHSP

[6] = topical, 0, 1.44, 7.2, 36.0 μmol/kg/day, mice
[7] = system: mouse limb bud chondrocytes
[8] = system: bone marrow granulocytic precursors; conditions: oral, 0.5 mg/kg/day for 10 days, mice
[9] = system: prostate carcinoma cell lines
RARα [10] = target: T3, RARα; remark: listed apart in the source
RARγ [11] = target: T2, RARγ; remark: listed apart in the source
RARβ [12] = target: T1, RARβ; remark: listed apart in the source
[13] = system: acute promyelocytic leukemia; conditions: RA triggers differentiation
[14] = system: nuclear retinoid receptors
RBP = RBP (Homo sapiens, UniProt P02753)
[15] = in vivo
[16] = 20 mg/kg/day, 7 days, subcutaneous, rats
[17] = system: rabbit HIG-82 synovial fibroblasts; conditions: 0.01 to 10 μM
RARs [18] = conditions: in vitro
testicular cells [19] = system: testicular cells
mammary epithelial cell = conditions: 1 μM
testicular cells [20] = conditions: rabbits, 2, 10, 50 mg/kg orally for 1 wk
[21] = system: gastrulation-stage zebrafish embryo
[22] = ip, 15 mg/kg/d

Cc1ccc(C2=CCC(C)(C)c3ccc(C#Cc4ccc(C(=O)O)cc4)cc32)cc1 [AGN 193109]
Kd (RARβ [1]): 7 nM | Receptor Specificity (RARs [2]): pan-RAR antagonist; also recorded: RARαβγ | hormone action of RA in skin (later in development, single oral dose of 100 mg/kg): suppresses the hormone action of RA in skin | placental transfer (pregnant mouse): readily crosses the placenta | antagonism of retinoid-specific events in craniofacial development (pregnant mouse, 1 mg/kg single oral dose): sufficient to antagonize retinoid-specific events in craniofacial development | Kd (RARγ [3]): 7 nM | partial agonist activity [4]: did not have partial agonist activity | retinoid-mediated activities (proliferation, keratin & RARβ gene expression) ([4]; 10 nM, 100 nM): suppresses retinoid-mediated activities | Kd (RARα [5]): 16 nM | effect on TTNPB toxicity (cutaneous irritation, weight loss, mortality) [6]: counteracts the toxicity symptoms

Cc1ccc(C2=CC(C)(C)Oc3c(Br)cc(C(=O)Nc4ccc(C(=O)O)c(F)c4)cc32)cc1 [AGN 194301]
Kd (RARβ [1]): 320 nM | Receptor Specificity (RARs [2]): RARα | Kd (RARγ [3]): 7250 nM | differentiation of limb bud chondrocytes, Sox9 induction ([7]; 1 μM): overcome RA signaling and permit the differentiation of mouse limb bud chondrocytes | Kd (RARα [5]): 3 nM

CCc1ccc(C2=CC(C)(C)Sc3ccc(C#Cc4ccc(C(=O)O)cc4)cc32)cc1 [AGN 194310]
Kd (RARβ [1]): 2 nM | Receptor Specificity (RARs [2]): pan-RAR antagonist; also recorded: RARαβγ | Kd (RARγ [3]): 5 nM | frequency of bone marrow granulocytic precursors [8]: sufficient to elevate the frequency of bone marrow granulocytic precursors | signs of ill health or abnormal pathology [8]: did not show signs of ill health or abnormal pathology | differentiation of limb bud chondrocytes, Sox9 induction ([7]; 50 nM): overcome RA signaling and permit the differentiation of mouse limb bud chondrocytes | Kd (RARα [5]): 3 nM | potency relative to all-trans-retinoic acid [9]: 12-22 times

CC1=C(/C=C/C(C)=C/C=C/C(C)=C/C(=O)O)C(C)(C)CCC1 [All-trans-retinoic acid]
Receptor Specificity (RARs [2]): RARαβγ

CC1(C)CC=C(c2cnc3ccccc3c2)c2cc(C(=O)Nc3ccc(C(=O)O)cc3)ccc21 [BMS 614]
agonist or antagonist action at RARα (RARα [10]): antagonist | molar excess to RA at which RARα transactivation is antagonised (RARα [10]): 100 fold | RARβ Kd (RARβ [1]): not bound | antagonism of RARγ transactivation (RARγ [11]): no antagonism | Receptor Specificity (RARs [2]): RARα | RARγ Kd (RARγ [3]): not bound | antagonism of RARβ transactivation (RARβ [12]): at best modestly | Kd (RARα [5]): 2.5 nM

CC1(C)CC=C(c2ccccc2)c2cc(C(=O)Nc3ccc(C(=O)O)cc3)ccc21 [BMS 185411]
agonist or antagonist action at RARα (RARα [10]): antagonist | Kd (RARβ [1]): ~1300 nM | agonist or antagonist action at RARγ (RARγ [11]): weak agonist | Receptor Specificity (RARs [2]): RARα | Kd (RARγ [3]): ~20000 nM | agonist or antagonist action at RARβ (RARβ [12]): agonist | Kd (RARα [5]): ~150 nM | activity in the acute promyelocytic leukemia assay [13]: no activity

O=C(O)c1ccc2cc(-c3ccc(O)c(C45CC6CC(CC(C6)C4)C5)c3)ccc2c1 [CD437]
binding to RARs and RXRs (RAR and RXR): weakly bind

CC1=C(/C=C/C(C)=C/C=C/C(C)=C/C(=O)Nc2ccc(O)cc2)C(C)(C)CCC1 [Fenretinide, N-[4-hydroxyphenyl]retinamide]
binding to RARs and RXRs (RAR and RXR): weakly bind | binding to RARs and RXRs (RAR and RXR; listed as 4-hydroxphenylretinamide): weakly | trans-activation of the nuclear retinoid receptors [14]: poorly trans-activates the nuclear retinoid receptors | binding to RBP and effect on RBP-TTR (RBP): binds to RBP, displacing RBP from transthyretin (TTR) | concentrations of vitamin A and RBP in the bloodstream [15]: lower the concentrations of both vitamin A and retinol binding protein (RBP) | symptoms of vitamin A insufficiency [15]: impaired dark vision adaptation and epithelial keratosis

CCCCCCCOc1cc2c(cc1/C(C)=C/c1ccc(C(=O)O)cc1)C(C)(C)CCS2(=O)=O [Ro 41-5253]
Kd (RARβ [1]): 2400 nM | Receptor Specificity (RARs [2]): RARα | Kd (RARγ [3]): 3300 nM | Kd (RARα [5]): 60 nM

CCCCCCCOc1cc2c(cc1/C(C)=C/C=C/C(C)=C/C(=O)O)C(C)(C)CCS2(=O)=O [Ro 46-5471]
Kd (RARβ [1]): 5100 nM | Receptor Specificity (RARs [2]): RARα | Kd (RARγ [3]): 240 nM | Kd (RARα [5]): 27 nM

BMS 189453
agonist or antagonist action at RARα (RARα [10]): antagonist | progression of experimental glomerulonephritis [16]: reduce the progression of experimental glomerulonephritis | toxicity (eating or drinking, posturing or behavior, weight loss) [16]: did not show toxicity | agonist or antagonist action at RARγ (RARγ [11]): antagonist | Receptor Specificity (RARs [2]): RARαγ | gene expression of pro-inflammatory collagenase [17]: suppresses gene expression of pro-inflammatory collagenase | transactivation of the RARs (RARs [18]): does not transactivate the RARs | overt toxicity (testicular cells [19]; 2, 10, 50 mg/kg doses): not overtly toxic | testicular atrophy after ceasing treatment (testicular cells [19]; 30 days after ceasing treatment, 2-50 mg/kg): testicular atrophy was seen at even low doses | overt toxicity (testicular cells [19]; rats, 240 mg/kg daily for 30 days): Overt toxicity was observed | testicular toxicity (testicular cells [19]; rats, 2, 10, 50 mg/kg for 1, 3, 7 days): caused the atrophy and degeneration of testicular cells | mammary epithelial cell growth (mammary epithelial cell): inhibits mammary epithelial cell growth | Kd (RARγ [3]): ~20 nM | testicular toxicity (testicular cells [20]): caused the atrophy and degeneration of testicular cells | agonist or antagonist action at RARβ (RARβ [12]): weak RARβ agonist | effect on myocardiogenesis [21]: suppress myocardiogenesis | overt toxicity or hypovitaminosis A [22]: not observed | inflammation and joint erosion ([22]; mouse and rat, two models): delayed the onset, severity, and progression of inflammation and joint erosion | Kd (RARα [5]): ~15 nM | AP-1 activity (AP-1): represses AP-1 activity
